Reference: patent publication US9464042B2, “Biguanide derivative, preparation method thereof, and pharmaceutical composition containing same as an active ingredient” (IMMUNOMET THERAPEUTICS INC., priority 2010, dated 2016)

What was measured:
HCT116 cells = experiment: Inhibition of cancer cell proliferation (MTT, GIC50); format: cell-based; conditions: Homo sapiens, HCT-116, 48 h incubation
Protocol: HCT116 cells derived from human colorectal cancer were used, and a cancer cell proliferation inhibition effect of a biguanide derivative was confirmed by measuring a concentration value (cell growth inhibition concentration, GIC50) at which cell growth was inhibited 50% using a 3-(4,5-dimethylthiazol-2-yl)-2,5-diphenyltetrazolium bromide (MTT) reagent.
First, the HCT116 cells were put on a 96-well plate and incubated for 24 hours to each have cell count of approximately 5000 in a DMEM medium containing 10% fetal bovine serum. Subsequently, to obtain the GIC50 value of each compound, 100 μM (or 200 μM), 25 μM, 6.25 μM, 1.56 μM or 0.39 μM of the compound was treated to each culture medium and then incubated for 48 hours. To confirm living cells after treatment with the compound, MTT was added to each culture medium and further incubated for 3 hours. Generated formazane crystal was dissolved using dimethyl sulfoxide (DMSO), and absorbance of the solution was measured at 560 nm. After the 48-hour incubation, a ratio of […] synthesized in the examples was indicated as cell viability (%) according to each administered concentration. A cell viability curve was plotted using the cell viability (%) and the calculated concentration value (GIC50) of the compound, at which 50% of the growth was inhibited, to confirm an effect on the inhibition of cancer cell proliferation.

AMPK = AMPK activation (AMPKα immunoassay kit, phospho-Thr172) in MCF7 cells; format: cell-based, human; design: AMPK Activation 50 uM (degree of phosphorylated AMPKα Thr172): unit not given here; conditions: 24 h; for AMPK Activation Fold: 50 uM compound vs 0 (no compound); for AMPK Activation 50 uM (degree of phosphorylated AMPKα Thr172): 50 uM compound
Protocol: The MCF7 cells were put on a 6-well plate and incubated in a DMEM medium containing 10% fetal bovine serum in an incubator to which 5% CO2 was supplied to have a cell count of approximately 5×10^5. 50 μM of the derivatives synthesized in the examples were treated to the each culture medium, and the cells were incubated for 24 hours. Subsequently, the cells were lysed by a method presented in the operation manual of the AMPKα immunoassay kit, and 20 μg of cell lysates were yielded through protein assay.

Row | SMILES | IC50 (HCT116 cells) [µM] | AMPK Activation Fold (AMPK) | AMPK Activation 50 uM (degree of phosphorylated AMPKα Thr172) (AMPK) | melting point [°C]
1 | CCCCN/C(=N\CCc1cccs1)NC(=N)N.Cl [Example 24, N4-(thiophene-2-yl)ethyl-N5-butyl biguanide hydrochloride] | > 100 | 4.4 | 29.9 | 131 to 133
2 | Cl.N=C(N)N/C(=N/Cc1cccnc1)NC1CCCCC1 [Example 26, N4-(pyridine-3-yl)methyl-N5-cyclohexyl biguanide hydrochloride] | > 100 | 2.3 | 15.4 | 265 to 266
3 | Cl.N=C(N)N/C(=N/CCc1ccccc1)NC1CCCCC1 [Example 27, N4-(phenethyl)-N5-cyclohexyl biguanide hydrochloride] | > 100 | 2.7 | 18.7 | 183 to 184
4 | Cl.N=C(N)N/C(=N/Cc1cccnc1)Nc1ccccc1 [Example 28, N4-(pyridine-3-yl)methyl-N5-phenyl biguanide hydrochloride] | > 100 | 1.0 | 6.7 | 189 to 190
5 | Cl.N=C(N)N/C(=N/C1CCCC1)NCc1ccccc1 [Example 30, N4-cyclopentyl-N5-benzyl biguanide hydrochloride] | > 200 | 1.4 | 7.3 | 166 to 167
6 | Cl.N=C(N)N/C(=N/Cc1ccco1)NCc1ccccc1 [Example 32, N4-(furan-2-yl)methyl-N5-benzyl biguanide hydrochloride] | > 100 | 2.5 | 16.9 | 116 to 117
7 | Cl.N=C(N)N/C(=N/C12CC3CC(CC(C3)C1)C2)NCCc1ccccc1 [Example 34, N4-adamantyl-N5-(phenethyl)biguanide hydrochloride] | 18.7 | 8.3 | 20.8 | 251 to 252
8 | Cl.N=C(N)N/C(=N/c1ccc(C(F)(F)F)cc1)NCCc1ccccc1 [Example 37, N4-(4-trifluoromethyl)phenyl-N5-(phenethyl)biguanide hydrochloride] | 12.4 | 4.1 | 10.2 | 150 to 151
9 | Cl.N=C(N)N/C(=N/Cc1ccc2c(c1)OCO2)NCCc1ccccc1 [Example 39, N4-(benzo[1,3]dioxol-5-yl)methyl-N5-(phenethyl)biguanide hydrochloride] | > 100 | 0.9 | 6.4 | 168 to 169
10 | Cl.N=C(N)N/C(=N/Cc1ccccc1)NCCc1ccccc1 [Example 40, N4-benzyl-N5-(phenethyl)biguanide hydrochloride] | 85.6 | 3.9 | 20.5 | 165 to 166
11 | Cl.N=C(N)N/C(=N/Cc1ccc(F)cc1)NCCc1ccccc1 [Example 41, N4-(4-fluoro)benzyl-N5-(phenethyl)biguanide hydrochloride] | 42.8 | 4.0 | 10.1 | 125 to 127
12 | Cl.N=C(N)N/C(=N/CCc1cccs1)NCCc1ccccc1 [Example 42, N4-(thiophene-2-yl)ethyl-N5-(phenethyl)biguanide hydrochloride] | 76 | 5.9 | 31.5 | 183 to 185
13 | Cl.N=C(N)N/C(=N/CCc1ccccc1)NCCc1ccccc1 [Example 43, N4-N5-di(phenethyl)biguanide hydrochloride] | 70.2 | 4.5 | 23.8 | 183 to 184
14 | C/N=C(/NC(=N)N)N(C)Cc1ccccc1.Cl [Example 44, N4-methyl-N5,N5-(benzyl)(methyl)biguanide hydrochloride] | > 100 | 1.9 | 12.8 | 120 to 122
15 | CCCC/N=C(/NC(=N)N)N(Cc1ccccc1)C(C)C.Cl [Example 45, N4-butyl-N5,N5-(benzyl)(isopropyl)biguanide hydrochloride] | > 100 | 1.0 | 7.1 | 170 to 171
16 | CN(CCc1ccccc1)/C(=N\CCc1ccccc1)NC(=N)N.Cl [Example 47, N4-(phenethyl)-N5,N5-(phenethyl)(methyl)biguanide hydrochloride] | > 100 | 1.1 | 7.2 | 144 to 145
17 | CCCCN(CC)/C(=N\CCc1ccccc1)NC(=N)N.Cl [Example 48, N4-(phenethyl)-N5,N5-(butyl)(ethyl)biguanide hydrochloride] | > 100 | 1.0 | 6.6 | 228 to 229
18 | CCCCCCN(CCCCCC)/C(=N\CCc1ccccc1)NC(=N)N.Cl [Example 49, N4-(phenethyl)-N5,N5-dihexyl biguanide hydrochloride] | > 100 | 5.2 | 35.2 | 138 to 140
19 | CCCCN(Cc1ccccc1)/C(=N\CCc1ccccc1)NC(=N)N.Cl [Example 50, N4-(phenethyl)-N5,N5-(butyl)(benzyl)biguanide hydrochloride] | 59.1 | 4.0 | 21.4 | 184 to 185
